SMILES strings stand for the structures.

T1 sequence (Q9Y243 whole entry): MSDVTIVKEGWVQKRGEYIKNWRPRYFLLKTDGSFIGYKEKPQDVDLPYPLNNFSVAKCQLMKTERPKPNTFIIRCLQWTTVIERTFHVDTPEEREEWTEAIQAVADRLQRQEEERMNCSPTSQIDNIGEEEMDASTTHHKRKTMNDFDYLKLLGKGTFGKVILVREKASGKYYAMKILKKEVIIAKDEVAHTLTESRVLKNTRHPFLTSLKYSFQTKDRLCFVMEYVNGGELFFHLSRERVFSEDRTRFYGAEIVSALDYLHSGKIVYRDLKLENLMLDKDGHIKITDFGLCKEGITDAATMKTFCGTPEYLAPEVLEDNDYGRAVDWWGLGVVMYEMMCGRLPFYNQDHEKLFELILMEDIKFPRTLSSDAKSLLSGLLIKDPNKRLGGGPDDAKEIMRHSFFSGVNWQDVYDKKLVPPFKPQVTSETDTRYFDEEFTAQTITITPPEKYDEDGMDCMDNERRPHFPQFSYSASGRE

The first assay has as its target T1, Akt3 (Homo sapiens, UniProt Q9Y243).
T1 construct: endogenous in cells
Kind of assay: Akt3 activation activity of selected compounds. In kind it is cell-based.
In general, EC50 refers to the concentration giving half of the maximal effect. High values mean a need for much substance, low ones an effect from little substance. As to `Cc1cc(Nc2ccc3[nH]c(-c4ccc(Nc5ccnc6ccc(N(C)C)cc56)cc4)nc3c2)ccn1` [Compound 37, N^6,N^6-dimethyl-N^4-(4-(5-((2-methylpyridin-4-yl)amino)-1H-benzo [d]imidazol-2-yl)phenyl)quinoline-4,6-diamine], the EC50 is below 5 µM.
For the compound `Cc1cc(Nc2ccc3[nH]c(-c4ccc(Nc5ccnc6ccc(N7CCOCC7)cc56)cn4)nc3c2)ccn1` [Compound 69, N-(6-(5-((2-methylpyridin-4-yl)amino)-1H-benzo[d]imidazol-2-yl)pyridin-3-yl)-6-morpholinoquinolin-4-amine], the EC50 is below 0.02 µM.
Still for that read-out and setting: then `Cc1cc(Nc2ccc3[nH]c(-c4ccc(Nc5cc(C)nc6ccc(N7CCOCC7)cc56)cn4)nc3n2)ccn1` [Compound 70, 2-methyl-N-(6-(5-(2-methylpyridin-4-ylamino)-1H-imidazo [4,5-b]pyridin-2-yl)pyridin-3-yl)-6-morpholinoquinolin-4-amine], with below 2 µM; and `Cc1cc(Nc2ccc3[nH]c(-c4ccc(Nc5ccnc6ccc(N7CCOCC7)cc56)nc4)nc3c2)ccn1` [Compound 71, N-(5-(5-((2-methylpyridin-4-yl)amino)-1H-benzo[d]imidazol-2-yl)pyridin-2-yl)-6-morpholinoquinolin-4-amine], with below 0.05 µM; and `Cc1cc(Nc2ccc3[nH]c(-c4ccc(Nc5cc(C)nc6ccc(N7CCOCC7)cc56)nc4)nc3c2)ccn1` [Compound 73, 2-methyl-N-(5-(5-(2-methylpyridin-4-ylamino)-1H-benzo[d]imidazol-2-yl)pyridin-2-yl)-6-morpholinoquinolin-4-amine], with below 0.05 µM.
The compound `Cc1cc(Nc2ccc3[nH]c(-c4ccc(Nc5cc(C)nc6ccc(N7CCOCC7)cc56)cn4)nc3c2)ccn1` [Compound 74, 2-methyl-N-(6-(5-(2-methylpyridin-4-ylamino)-1H-benzo[d]imidazol-2-yl)pyridin-3-yl)-6-morpholinoquinolin-4-amine] came in with an EC50 below 0.05 µM.
`Cc1cc(Nc2ccc3[nH]c(-c4ccc(Nc5ccnc6ccc(N7CC(C)OC(C)C7)cc56)cc4)nc3c2)ccn1` (stereo not drawn) [Compound 75, 6-(2,6-dimethylmorpholino)-N-(4-(5-((2-methylpyridin-4-yl)amino)-1H-benzo[d]imidazol-2-yl)phenyl)quinolin-4-amine] registered a 50% effective concentration (EC50) below 0.02 µM.
`Cc1cc(Nc2ccc3[nH]c(-c4ccc(Nc5cc(C)nc6ccc(N7CC(C)OC(C)C7)cc56)cc4)nc3c2)ccn1` (stereo not drawn) [Compound 76, 6-(2,6-dimethylmorpholino)-2-methyl-N-(4-(5-(2-methylpyridin-4-ylamino)-1H-benzo[d]imidazol-2-yl)phenyl)quinolin-4-amine] showed an EC50 below 0.05 µM.
`Cc1cc(Nc2ccc3[nH]c(-c4ccc(Nc5cc(C)nc6ccc(N7CC(C)OC(C)C7)cc56)cn4)nc3c2)ccn1` (stereo not drawn) [Compound 77, 6-(2,6-dimethylmorpholino)-2-methyl-N-(6-(5-(2-methylpyridin-4-ylamino)-1H-benzo[d]imidazol-2-yl)pyridin-3-yl)quinolin-4-amine]: the EC50 is below 0.05 µM.

The next assay concerns the target T1, Akt3. Kind of assay: Akt3 inhibition activity of selected compounds. Format: cell-based.
Broadly, the IC50 is the concentration needed to halve the response being measured. Consider `O=C(Nc1cccc(Nc2ccncc2)c1)c1ccc(Nc2ccnc3ccc(F)cc23)cc1` [Compound 2, 4-((6-fluoroquinolin-4-yl)amino)-N-(3-(pyridin-4-ylamino)phenyl)benzamide], for which the IC50 was below 1 µM.
Compound `O=C(Nc1cccc(Nc2ccncc2)c1)c1ccc(Nc2ccnc3ccccc23)cc1` [Compound 5, N-(3-(pyridin-4-ylamino)phenyl)-4-(quinolin-4-ylamino)benzamide] came in with an IC50 below 2 µM.
As for `O=C(Nc1cccc(Nc2ccncc2)c1)c1ccc(Nc2ccncc2)cc1` [Compound 10, 4-(pyridin-4-ylamino)-N-(3-(pyridin-4-ylamino)phenyl)benzamide], the concentration for half-maximal inhibition (IC50) is below 1 µM.
The compound `Cc1cnc2ccccc2c1Nc1ccc(C(=O)Nc2cccc(Oc3ccncc3)c2)cc1` [Compound 13, 4-((3-methylquinolin-4-yl)amino)-N-(3-(pyridin-4-yloxy)phenyl)benzamide] displayed an IC50 below 5 µM.
The compound `Cc1cnc2ccccc2c1Nc1ccc(C(=O)Nc2cccc(Nc3ccncc3)c2)cc1` [Compound 14, 4-((3-methylquinolin-4-yl)amino)-N-(3-(pyridin-4-ylamino)phenyl)benzamide] showed an IC50 below 0.5 µM.
Regarding `Cc1cc(Nc2ccc(C(=O)Nc3cccc(Oc4ccncc4)c3)cc2)c2ccccc2n1` [Compound 15, 4-((2-methylquinolin-4-yl)amino)-N-(3-(pyridin-4-yloxy)phenyl)benzamide], the IC50 was below 2 µM.
Same read-out and setting: then `Cc1ccc2c(Nc3ccc(C(=O)Nc4cccc(Oc5ccncc5)c4)cc3)ccnc2c1` [Compound 17, 4-((7-methylquinolin-4-yl)amino)-N-(3-(pyridin-4-yloxy)phenyl)benzamide], with below 5 µM; and `Cc1cc(Nc2cccc(NC(=O)c3ccc(Nc4ccncc4)cc3)c2)ccn1` [Compound 22, N-(3-((2-methylpyridin-4-yl)amino)phenyl)-4-(pyridin-4-ylamino)benzamide], with below 2 µM.
The same measure, in the same setting: in the case of `Cc1cc(Nc2ccc(C(=O)Nc3cccc(Nc4ccnc(C)c4)c3)cc2)ccn1` [Compound 23, 4-((2-methylpyridin-4-yl)amino)-N-(3-((2-methylpyridin-4-yl)amino)phenyl)benzamide] it was below 2 µM.
Compound `O=C(Nc1cc(Nc2ccncc2)ccn1)c1ccc(Nc2ccncc2)cc1` [Compound 24, 4-(pyridin-4-ylamino)-N-(4-(pyridin-4-ylamino)pyridin-2-yl)benzamide] gave an IC50 below 5 µM.
The compound `N#Cc1cc(Nc2cccc(NC(=O)c3ccc(Nc4ccncc4)cc3)c2)ccn1` [Compound 30, N-(3-(2-cyanopyridin-4-ylamino)phenyl)-4-(pyridin-4-ylamino)benzamide] came in with an IC50 below 5 µM.
In turn, `O=C(Nc1cccc(Nc2ccnc(F)c2)c1)c1ccc(Nc2ccncc2)cc1` [Compound 31, N-(3-(2-fluoropyridin-4-ylamino)phenyl)-4-(pyridin-4-ylamino)benzamide] gave an IC50 below 1 µM.
Take `Cc1c(Nc2cccc(NC(=O)c3ccc(Nc4ccncc4)cc3)c2)ccnc1N` [Compound 92, N-(3-(2-amino-3-methylpyridin-4-ylamino)phenyl)-4-(pyridin-4-ylamino)benzamide]: the IC50 was below 5 µM.
On to `Nc1cc(Nc2cccc(NC(=O)c3ccc(Nc4ccncc4)cc3)c2)ccn1` [Compound 93, N-(3-(2-aminopyridin-4-ylamino)phenyl)-4-(pyridin-4-ylamino)benzamide], for which the IC50 is below 2 µM.
Turning to `Cc1cc(Nc2cccc(NC(=O)c3ccc(Nc4ccncc4)cc3)c2)cc(N)n1` [Compound 94, N-(3-(2-amino-6-methylpyridin-4-ylamino)phenyl)-4-(pyridin-4-ylamino)benzamide], the IC50 was below 2 µM.

Source of the values: US20230295114A1, “AKT3 MODULATORS” (Georgiamune LLC, priority 2020, published 2023).
